# Laboratory results published in patent US11066421B1, “Synthetic cinchona alkaloids against cancer” (Ares Pharmaceuticals, LLC, priority 2021, dated 2021).
# What was measured:
# [1] = system: primary leukemia/lymphoma cells; experiment: Annexin V flow cytometric apoptosis assay in primary cells from patients; type: cell-based, human
# Method: Apoptotic death was monitored using multiparameter flow cytometry, as previously reported (F. M. Uckun, et al., 2011, British Journal of Haematology, 153:741-752; F. M. Uckun et al., 2015, J Clin Invest., 125:1006-18). Controls included vehicle (PBS) treated cells (CON). Cells were analyzed for apoptosis using the standard quantitative flow cytometric apoptosis assay using the Annexin V-FITC Apoptosis Detection Kit from Sigma. The labeled cells were analyzed on a flow cytometer. The percent apoptosis was calculated using the formula: 100-100×(Percentage of non-apoptotic cells in test sample/Percentage of non-apoptotic cells in untreated control sample). The percentages for Annexin V FITC^−PI^− viable cells and Annexin V-FITC^+PI^+ advanced apoptotic cells for each sample are indicated in the respective quadrants of the depicted two-color fluorescence dot plots.
# We examined the ability AP-5 to cause apoptotic death in freshly obtained primary cancer cells from Ficoll-Hypaque separated, highly enriched populations of primary leukemia/lymphoma cells isolated from bone marrow (BM, N=13) or peripheral blood (PB, N=13) specimens of 26 patients with hematological malignancies, 3 patients with rare forms of leukemia (one each with prolymphocytic leukemia [PLL], plasma cell leukemia [PCL], large granular cell leukemia [LGL]), one patient with chronic myeloid leukemia in blast crisis (CML-BC), including 8 patients with chronic lymphocytic leukemia (CLL)/well differentiated lymphocytic lymphoma (WDLL), one patient with acute myeloid leukemia (AML), 11 patients with B-lineage acute lymphoblastic leukemia (ALL) and 2 patients with T-lineage ALL (FIG. 1). Cells were treated with standard chemotherapeutic agents at various concentrations provided in RPMI-1640 medium supplemented with 10% fetal bovine serum (FBS) and incubated at 37° C. for 24 hr. Dexamethasone (DEQ.) was used. at 50 μg/ml, Adriamycin (ADR) at 10 μg/ml, vincristine (VCR), gemcitabine (GEM), fludarabine (FLU), methotrexate (MTX), etoposide (ETO), cytarabine (ARA-C) and cladribine (2-CDA) at 25 μg/ml. The cells were washed with serum-free RPMI-1640 medium and then processed for apoptosis assays. […]
# Apoptotic death was monitored using multiparameter flow cytometry, as previously reported (F. M. Uckun et at, 2006, Brit Journal of Hematol. 135:500-8; F. M. Uckun et al., 2011, Brit Journal of hematol. 153:741-52; F. M. Uckun et al., 2015, J. Clin. Invest. 125:1006-18). Exposure of phosphatidylserine to the outer leaflet of the leukemic cell membrane was measured using fluorescein isothiocyanate (FITC)-conjugated annexin V, the natural ligand of phosphatidylserine (R&D Systems, Minneapolis, Minn., USA). […] The labelled cells were analyzed using a FACS Vantage flow cytometer (Becton Dickinson, Mountain view, CA, USA). […]
# [2] = system: leukemia-initiating ALL xenograft cells; experiment: Leukemia-initiating ALL xenograft cells treated in vitro and reinjected into NOD/SCID mice; type: in vivo, human; details: for spleen leukemia burden (nucleated spleen cell count) / spleen size (mean±SE): NOD/SCID mice sacrificed at 85 days
# Method: Patient derived xenograft mouse models have predictive value for clinical responses (Xu C, Li X, Liu P, Li M and Luo F: Patient-derived xenograft mouse models: A high fidelity tool for individualized medicine (Review). Oncol Lett 17: 3-10, 2019). Xenograft clones isolated from spleens of NOD/SCID mice that developed overt leukemia after inoculation with primary leukemia cells from a B-lineage ALL patient were treated for 24 hours at 37° C. with one of two concentrations of AP-5 (1 μM or 3 μM in phosphate buffered saline [PBS] with 2% DMSO) or vehicle (PBS with 2% DMSO) and then reinjected into NOD/SCID mice (Control group: 9 mice; AP-5 groups: 8 mice per concentration level). Mice were monitored for signs of leukemia, and all mice in a given experiment were sacrificed when any mouse developed morbidity. The animal research in mice was conducted according to approved local IACUC protocols. All animal care procedures conformed to the Guide for the Care and Use of Laboratory Animals (National Research Council, National Academy Press, Washington D.C., USA. Revised 1996). Leukemia cells isolated from deidentified patient specimens were used in the described experiments.
# Eight of the 9 control mice challenged with vehicle-treated xenograft cells developed leukemia between 81 and 85 days. All remaining mice were also sacrificed at 85 days. The spleen size and spleen leukemia burden were compared using previously published procedures (F. M. Uckun et al., 2015, J Clin Invest. 125:1006-18). […] The nucleated spleen cell count in these leukemic mice ranged from 192×10^6 to 940×10^6 (median: 576×10^6). The mean±SE values for all 9 control mice was 3.2±0.2 cm for the spleen size and 536.39±94.45×10^6 cells for the spleen leukemia burden (FIG. 4). By comparison, the spleens of mice inoculated with xenograft cells treated with AP-5 at a concentration of 1 μM (mean±SE=1.5±0.1 cm) (P=0.0011) or 3 μM (mean±SE=1.5±0.0 cm) (P=0.0018) were much smaller and contained substantially fewer cells (1 μM group: 7.95±1.11×10^6 cells/P=0.0104; 3 μM group: 5.84±1.07×10^6 cells/P=0.00002). […] FIG. 4 illustrates that AP-5 abrogates the ability of leukemia-initiating ALL xenograft cells to cause leukemia in NOD/SCID mice. The depicted Whisker plots in FIG. 4 represent the median and values (Min to Max. all data points are shown) for spleen size (A), and spleen leukemia burden (B). Kruskall Wallis and Dunn's multiple comparisons test were used for comparing the results among different groups (p<0.05). Statistical significance between groups is shown by the depicted p-values.
# [3] = 24 hr in vitro exposure, primary cells from 26 patients
# [4] = xenograft cells treated 24 h with 1 μM
# [5] = xenograft cells treated 24 h with 3 μM
substance,measurement,setting,value
"2,4,6-Tri (9-O-dihydrocinchoninyl)pyrimidine [AP-5]",% apoptosis (Mean±SE),[1]; [3],93.5±1.1%
same,median percentage of apoptosis,[1]; [3],96.1%
same,% apoptosis (range),"[1]; 24 hr in vitro exposure, primary cells from 26 patients, range",79.9-99.6%
same,potency versus standard chemotherapy drugs tested side by side,"[1]; 24 hr, % apoptosis compared",substantially more potent than any of the 9 standard chemotherapy drugs tested side by side
same,ability of xenograft cells to initiate leukemia in NOD/SCID mice,[2]; low micromolar concentration (1 or 3 μM),capable of abrogating the ability of the putative leukemic stem cell subpopulation of BPL xenograft cells to initiate leukemia
same,spleen leukemia burden (nucleated spleen cell count),[2]; [4],7.95±1.11 ×10^6 cells
same,spleen size (mean±SE),[2]; [4],1.5±0.1 cm
same,spleen leukemia burden (nucleated spleen cell count),[2]; [5],5.84±1.07 ×10^6 cells
same,spleen size (mean±SE),[2]; [5],1.5±0.0 cm
